Test results taken from article PMC12321279, “Novel 4,5‐Dihydrothiazole‐Phenylpiperazine Derivatives: Synthesis, Docking Studies and Pharmacological Evaluation as Serotonergic Agents” (Chemmedchem, 2025).
Where two headings read alike, the source gives them in different places.

Key:
[1] = molecular target: T1, 5‐HT1A receptor (Rattus norvegicus, UniProt P19327); test: 5‐HT1A receptor activation in the [35S]GTP‐γ‐S assay (hippocampal membranes); type: biochemical; details: [35S]GTPγS; for Emax / Emax (%) ± SEM, 5‐HT1A receptor G‐protein stimulation / pEC50, 5‐HT1A receptor G‐protein stimulation / EC50 (95% CI, μM), 5‐HT1A receptor G‐protein stimulation / EC50: rat hippocampal membranes; for Emax: read-out: Emax (%) ± SEM, 5‐HT1A receptor G‐protein stimulation; for agonist activity for the 5‐HT1A receptor (classification in words): efficacy compared with 8‐OH‐DPAT
T1 construct: 80 μg of hippocampal membrane suspension (the 5‐HT1A assay); from tissue; host or cells: rat (Sprague-Dawley) hippocampus membranes
T1 sequence (P19327 1-422): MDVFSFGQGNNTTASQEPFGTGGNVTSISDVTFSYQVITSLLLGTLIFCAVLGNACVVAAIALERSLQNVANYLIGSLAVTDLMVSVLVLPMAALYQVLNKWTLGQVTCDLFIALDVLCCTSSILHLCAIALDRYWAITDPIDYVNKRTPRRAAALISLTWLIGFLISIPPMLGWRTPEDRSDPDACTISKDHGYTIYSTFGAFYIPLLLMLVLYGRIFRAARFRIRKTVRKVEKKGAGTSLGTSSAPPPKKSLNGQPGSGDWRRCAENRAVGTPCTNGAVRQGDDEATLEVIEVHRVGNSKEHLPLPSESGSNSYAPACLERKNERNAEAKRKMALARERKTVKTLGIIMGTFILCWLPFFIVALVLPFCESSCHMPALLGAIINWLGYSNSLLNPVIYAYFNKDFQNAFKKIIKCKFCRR
Method: Seven compound concentrations equally spaced on a log scale (10–4 M to 10–10 M) were incubated in duplicate with hippocampal membrane preparations (5μg per well) in assay buffer (50 mM Tris‐HCl, pH = 7.4, 1 mM EGTA, 3 mM MgCl2, 100 mM NaCl, and 30 μM GDP) and 0.08 nM [^35S]GTP‐γ‐S (specific activity: 1250 Ci mmole^−1, Revvity). Nonspecific binding was determined with 10μM of unlabeled GTP‐γ‐S. The final DMSO concentration in the assay was 5%. The reaction mixture was incubated for 90 min. at 30 °C on an orbital shaker set at 250 rpm. Next, the reaction mixture was deposited under vacuum with the FilterMate Harvester (Revvity, USA) onto Unifilter GF/C Plates (Revvity, MA, USA) presoaked with wash buffer (50 mM Tris‐HCl, pH = 7.4). The wells were then rapidly washed with 2 mL of wash buffer. Filter plates were dried overnight at room temperature. Once completely dry, 35 μl of MicroScint PS (Revvity, MA, USA) scintillation fluid was added to each well. Radioactivity was counted in a MicroBeta2 LumiJet scintillation counter (Revvity, MA, USA). Data were analyzed with GraphPad Prism 5.0 software (GraphPad Software, San Diego California USA, www.graphpad.com). The curves were fitted with three‐parameter non‐linear regression model.

[2] = molecular target: T1, 5‐HT1A receptor; test: 5‐HT1A competition binding assay ([3H]8‐OH‐DPAT, hippocampal membranes); details: 1 nM [3H]8‐OH‐DPAT
Method: (§1) Sprague‐Dawley rats were sacrificed by isoflurane overdose. Brains were rapidly removed and placed on ice. Hippocampi (for the 5‐HT1A assay) and frontal cortices (for the 5‐HT2A and 5‐HT2C assays) were dissected on a Petri dish. The tissue from 10 rats was homogenized in 30 vol. homogenization buffer (50 mM Tris–HCl, […], 1 mM EDTA, 1 mM dithiothreitol) with a handheld Teflon‐glass homogenizer. The homogenate was centrifuged at 48,000 × g at 4 °C for 15 min. The pellet was suspended and homogenized in the homogenization buffer and incubated for 10 min. at 36 °C. The centrifugation and suspension steps were repeated twice. The final pellet was homogenized in 5 vol. 50 mM Tris–HCl, pH = 7.4 buffer and stored at −80 °C for no longer than 6 months. […] For the 5‐HT2C assay, compounds were incubated in duplicate with 5 nM [^3H]mesulergine (specific activity: 80.2 Ci mmol^−1, Revvity, MA, USA) for 60 min. at 36 °C in a 50 mM Tris‐HCl (pH 7.4) buffer, supplemented with 5 mM MgCl2, 140 mM NaCl, 1 mM DTT, 1 mM CaCl2, 10 μM pargyline and 160μg of the frontal cortex membrane suspension. Non‐specific binding was determined with 10μM serotonin. The final DMSO concentration in the assay was 5%. After incubation, the reaction mixture was deposited onto Unifilter GF/C plates (Revvity, MA, USA) presoaked in 0.4% PEI (or 0.4% PEI and 0.5% Triton X‐100 for the 5‐HT2C assay) for 1 h with the FilterMate‐96 Harvester (Revvity, MA, USA). Then, each well was washed with 2 mL of 50 mM Tris–HCl (pH 7.4) buffer to separate bound ligands from free and the plates were left to dry overnight. Then, 35μl of Microscint‐20 scintillation fluid (Revvity, MA, USA) was added to each filter well and left to equilibrate for 2h. Filter‐bound radioactivity was counted in a MicroBeta2 LumiJet scintillation counter (Revvity, MA, USA). Binding curves were fitted with one site non‐linear regression. Binding affinity (pKi and Ki) for each compound was calculated from the […] values with the Cheng‐Prusoff equation from two separate experiments.

[3] = molecular target: T2, 5‐HT2C receptor (Rattus norvegicus, UniProt P08909); test: 5‐HT2C competition binding assay ([3H]mesulergine, frontal cortex membranes); details: 5 nM [3H]mesulergine
T2 construct: 10 μM pargyline and 160μg of the frontal cortex membrane suspension; from tissue; host or cells: rat (Sprague-Dawley) frontal cortex membranes
T2 sequence (P08909 33-460): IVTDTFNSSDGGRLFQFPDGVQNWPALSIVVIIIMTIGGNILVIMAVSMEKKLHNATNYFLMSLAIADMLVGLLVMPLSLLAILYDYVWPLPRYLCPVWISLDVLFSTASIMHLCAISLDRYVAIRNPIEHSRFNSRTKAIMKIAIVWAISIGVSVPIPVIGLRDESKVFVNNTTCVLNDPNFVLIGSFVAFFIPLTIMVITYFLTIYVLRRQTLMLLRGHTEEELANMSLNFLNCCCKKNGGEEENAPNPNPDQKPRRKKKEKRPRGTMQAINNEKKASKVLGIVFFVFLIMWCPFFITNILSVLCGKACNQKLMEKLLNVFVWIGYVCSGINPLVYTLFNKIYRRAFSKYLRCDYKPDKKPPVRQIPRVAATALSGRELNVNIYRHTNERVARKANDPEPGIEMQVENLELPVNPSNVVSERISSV
Method: as §1

[4] = molecular target: T3, 5‐HT2A receptor (Rattus norvegicus, UniProt P14842); test: 5‐HT2A competition binding assay ([3H]ketanserin, frontal cortex membranes); set-up: from tissue; host or cells: rat (Sprague-Dawley) frontal cortex membranes; details: 1 nM [3H]ketanserin
[5] = molecular target: T3, 5‐HT2A receptor; test: Inhibition of 5‐HT‐evoked contractions in isolated rat ileum; set-up: segments (1–1.5 cm) of ileum were removed, flushed of luminal contents, and placed in Krebs solution; from tissue; host or cells: isolated rat (Sprague-Dawley) ileum segments; details: 5‐HT 10^−5 M, compounds 10^−8–10^−5 M
Method: Male rats (Sprague‐Dawley, 160–200 g; Charles River Laboratories; Calco, Italy) were manipulated and cared for in strict compliance with the principles of laboratory animal care. Experimental procedures were conducted in conformity with Italian (D.L. 26/2014) and European (directive 2010/63/EU) regulations on the protection of animals used for scientific purposes and approved by the Italian Ministry. Animal housing complied with recent pharmacological guidance.^[ [40] ^] All animals weighing 160–200 g were used after a 1‐week acclimation period (temperature 23 ± 2 °C; humidity 60%, free access to water and standard food).
The segments were prepared as previously described:^[ [41] ^] the segments were set up in such a way as to record contractions mainly from the longitudinal axis, in an organ bath containing 20 mL of Krebs solution, bubbled with 95% O2 and 5% CO2 and maintained at 37 °C. The tissues were connected to an isotonic transducer (load: 0.5 g), connected to Power Lab system (Ugo Basile, Comerio, Italy). Ileal segments were equilibrated for 60 min^[ [16] ^] followed by three repeated additions of submaximal concentration of 5‐HT (10^−5 M) in order to record stable control contractions. […] The contact time for each concentration was 10 min. The compounds were dissolved in DMSO. […] Results are expressed as mean (SEM). […] The IC50 and Emax values were calculated with the aid of a computer program (GraphPad Prism 5).

[6] = 95% CI in brackets, read-out: 5‐HT1A Ki (95% CI)
[7] = read-out: 5‐HT1A pKi (converted)
[8] = 95% CI in brackets, read-out: 5‐HT2C Ki (95% CI)
[9] = 95% CI in brackets, read-out: 5‐HT2A Ki (95% CI)
[10] = read-out: 5‐HT2C pKi (converted)
[11] = 95% CI in brackets, read-out: EC50 (95% CI, μM), 5‐HT1A receptor G‐protein stimulation

T3 sequence (P14842 whole entry): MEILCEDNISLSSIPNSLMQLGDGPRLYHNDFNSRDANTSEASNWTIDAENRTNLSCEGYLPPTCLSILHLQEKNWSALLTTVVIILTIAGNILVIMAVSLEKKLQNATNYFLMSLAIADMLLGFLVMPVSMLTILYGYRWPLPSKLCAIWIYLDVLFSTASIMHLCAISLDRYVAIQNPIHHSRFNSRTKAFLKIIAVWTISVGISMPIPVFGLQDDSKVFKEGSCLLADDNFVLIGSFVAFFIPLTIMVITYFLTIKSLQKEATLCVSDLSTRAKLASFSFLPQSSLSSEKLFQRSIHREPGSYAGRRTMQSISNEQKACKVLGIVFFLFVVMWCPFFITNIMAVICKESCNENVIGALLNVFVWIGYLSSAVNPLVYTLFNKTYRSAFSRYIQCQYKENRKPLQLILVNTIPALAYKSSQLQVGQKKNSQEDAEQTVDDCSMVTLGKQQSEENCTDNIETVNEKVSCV

SMILES | Emax [1] [%] | Ki [2, 6] [µM] | Ki [2, 7] [µM] | Ki [3, 8] [µM] | Emax (%) ± SEM, 5‐HT1A receptor G‐protein stimulation [1] | pEC50, 5‐HT1A receptor G‐protein stimulation [1] | EC50 (95% CI, μM), 5‐HT1A receptor G‐protein stimulation ([1]; 95% CI in brackets) | agonist activity for the 5‐HT1A receptor (classification in words) [1] | Ki [4, 9] [µM] | Ki [3, 10] [µM] | EC50 [1, 11] [µM] | other results
CCCN(CCC)C1CCc2cccc(O)c2C1 (stereo not shown) [8‐OH‐DPAT, 8‐hydroxy‐dipropylaminotetraline, reference compound] | 177 ± 1.2 |  |  |  |  |  |  |  |  |  |  | 
O=C(NCCCN1CCN(c2ccc(C3=NCCS3)cc2)CC1)c1ccccn1 [FG‐3, N‐(3‐(4‐(4‐(4,5‐dihydrothiazol‐2‐yl) phenyl) piperazin‐1‐yl) propyl) picolinamide] |  | 4.5 | 4.57 | 1.46 | No activity | No activity | No activity | do not express any agonist activity | 6.3 |  |  | 
O=C1C2C3C=CC(C3)C2C(=O)N1OCCCN1CCN(c2ccc(C3=NCCS3)cc2)CC1 (stereo not shown) [FG‐9, 2‐(3‐(4‐(4‐(4,5‐dihydrothiazol‐2‐yl) phenyl) piperazin‐1‐yl) propoxy)‐3a,4,7,7a‐tetrahydro‐1H‐4,7‐methanoisoindole‐1,3(2H)‐dione] |  |  | 72.4 | 2.03 | No activity | No activity | No activity | do not express any agonist activity | 14.1 |  |  | 
O=C1C2C3C=CC(O3)C2C(=O)N1OCCCN1CCN(c2ccccc2C2=NCCS2)CC1 (stereo not shown) [FG‐10, 2‐(3‐(4‐(2‐(4,5‐dihydrothiazol‐2‐yl) phenyl) piperazin‐1‐yl) propoxy)‐3a,4,7,7a‐tetrahydro‐1H‐4,7‐epoxyisoindole‐1,3(2H)‐dione] | 120 ± 14.9 | 0.61 |  |  |  |  |  |  | 3.84 | 3.24 | 52 | 
O=C1C2C3C=CC(O3)C2C(=O)N1OCCCN1CCN(c2cccc(C3=NCCS3)c2)CC1 (stereo not shown) [FG‐11, 2‐(3‐(4‐(3‐(4,5‐dihydrothiazol‐2‐yl) phenyl) piperazin‐1‐yl) propoxy)‐3a,4,7,7a‐tetrahydro‐1H‐4,7‐epoxyisoindole‐1,3(2H)‐dione] |  | 2.2 |  | 40.5 | No activity | No activity | No activity | do not express any agonist activity | 1.48 |  |  | Emax ([5]; read-out: EMAX, maximal inhibitory effect on 5‐HT‐induced contractions in the rat ileum): 28.7%; IC50 ([5]; IC50, inhibition of 5‐HT‐induced contractions in the rat ileum, contact time 10 min): 4.39 µM
O=C1C2C3C=CC(O3)C2C(=O)N1OCCCN1CCN(c2ccc(C3=NCCS3)cc2)CC1 (stereo not shown) [FG‐12, 2‐(3‐(4‐(4‐(4,5‐dihydrothiazol‐2‐yl) phenyl) piperazin‐1‐yl) propoxy)‐3a,4,7,7a‐tetrahydro‐1H‐4,7‐epoxyisoindole‐1,3(2H)‐dione] | 135 ± 18.2 |  | 63.1 | 0.286 |  |  |  |  | 6.93 |  | 46.2 | 
O=C(NCCCN1CCN(c2ccccc2C2=NCCS2)CC1)C1CC2C=CC1C2 (stereo not drawn) [FG‐13, Exo‐N‐(3‐(4‐(2‐(4,5‐dihydrothiazol‐2‐yl)phenyl)piperazin‐1‐yl)propyl) bicyclo [2.2.1] hept‐5‐ene‐2‐carboxamide] | 132 ± 8.4 | 0.22 |  |  |  |  |  |  | 3.54 | 0.794 | 79.6 | 
O=C(NCCCN1CCN(c2ccc(C3=NCCS3)cc2)CC1)C1CC2C=CC1C2 (stereo not drawn) [FG‐15, Exo‐N‐(3‐(4‐(4‐(4,5‐dihydrothiazol‐2‐yl)phenyl)piperazin‐1‐yl)propyl) bicyclo [2.2.1] hept‐5‐ene‐2‐carboxamide] | 137 ± 4.7 |  | 17.8 | 2.36 |  |  |  |  |  | 2.4 | 88.1 | EC50 ([1]; read-out: pEC50, 5‐HT1A receptor G‐protein stimulation (converted)): 89.1 µM; Ki ([4]; read-out: 5‐HT2A pKi (converted)): 4.47 µM
COc1cc(OC)c(C(=O)CCCCN2CCC3(CC2)NC(=O)NC3=O)cc1NS(=O)(=O)c1ccc(C(F)(F)F)cc1 [RS‐102 221, reference compound] |  |  |  | 0.0057 |  |  |  |  |  |  |  | 5‐HT2C pKi [3]: 8.24 ± 0.23
